Where “and” joins values, the source holds several entries; their conditions need not be identical. Equal values may be shown once.
Legend:
humans [1] = experiment: Open label dose-escalating safety and tolerability study of dietary agmatine sulfate capsules (Example I); type: in vivo, human; settings: for Adverse Effects (no. of participants): Nausea and Diarrhea: 12 participants
Experimental: This study is based on administration to humans weighing 60 to 70 kg.
Agmatine sulfate was manufactured according to international standards ISO 9001. It was encapsulated under cGMP (current Good Manufacturing Practice) conditions in gelatin-glycerin capsules as the sole active ingredient of the dietary supplement and the capsules packaged in properly labeled plastic container bottles.
The study was performed at Tel-Aviv Sourasky Medical Center, Israel and approved by the Institutional Review Board (Trial Number: 05-302) and by the Israel Ministry of Health National Review Board (Trial Number: 20050479), and conducted in accordance with the Helsinki guidelines under current Good Clinical Practice (cGCP) and the International Conference on Harmonization (ICH) guidelines. All procedures were performed after participants had read, understood and signed the informed consent form. Eligibility of consenting participants was determined after medical history recording, comprehensive clinical examination, and laboratory tests of blood samples to ensure inclusion/exclusion criteria.
Inclusion Criteria: 1) Men and women 18-75 years of age, including also those diagnosed with spine skeletal pathologies causing nerve compression. 2) Women must be non-pregnant, non-lactating, or sterilized, or postmenopausal. 3) All participants must give a signed informed consent.
Exclusion Criteria: 1) Those with any significant clinical, medical or surgical condition, such as: cardiovascular, pulmonary, hepatic, renal, immune, endocrine, metabolic, digestive, malignancy, or allergic, and those with deviations from the normal laboratory test values. 2) Those with any neuromuscular diseases (other than spine skeletal pathologies causing nerve compression). 3) Those with any neurological diseases. 4) Those with any history of alcohol or substance abuse within the last 2 years. 5) Those with gastric ulcer history. 6) Those who took any experimental drug within 90 days prior to screening. 7) Women who are pregnant or breast feeding. 8) Those participating in other clinical trials.
At the starting day of the study eligible participants began taking the supplement and had the option of receiving concomitantly any conventional treatment [e.g. drug treatment or physiotherapy] as needed for their welfare, and this was recorded throughout the duration of the study. However, any other experimental drug or dietary supplement was disallowed.
Table 1 details the escalating doses and regimens taken by the consecutive cohorts. Following screening to ensure inclusion/exclusion criteria, 48 men and women, 28 to 70 years old were recruited consecutively to the study after they gave a signed informed consent. Eligible participants took 3 times a day, after meals (morning, noontime and evening), the specified daily dose of agmatine sulfate capsules. Each capsule contained 445 mg of agmatine sulfate (Table 1).
Before beginning and within 5 days after termination—and before the next cohort began taking the supplement—all cohort participants underwent thorough clinical evaluation and routine laboratory tests of blood samples to ascertain normal function of the cardiovascular, hepatic, renal, immune and metabolic systems.
In-person evaluations were performed at: 11-15 days, 22-25 days, 40-45 days after treatment starting day (day 1), and then telephone interview evaluations every 3-6 months for the duration of the trial. The flow chart (2) outlined in FIG. 2 illustrates the treatment and follow-up schedules as exemplified for a 10-day cohort. In addition, participants received a “participant diary” for self recording of any outstanding health related events during the treatment interval.
For the sake of privacy, all records and data were identified only by participants' code number. All “source data” documents were stored in individual patient files and kept at the clinical center by the principal investigator and copies are kept with the study sponsor. […]

male Wistar rats = experiment: Sub-chronic intake of high dose agmatine sulfate in the drinking water (Example II); type: in vivo, rat; settings: for Blood Pressure (mmHg), systolic, mean / Daily Drinking (ml), mean / Body Weight (g), mean: group mean; for Body Weight / Blood Pressure (mmHg), systolic / Daily Drinking: individual animal, sulfate
Experimental: The experiment was performed at Assaf Harofeh Medical Center, Israel, according to the Institutional Animal Care and Use Committee approved protocol. Three-month-old male Wistar rats (Harlan, Israel) weighing 250±20 g were caged individually under standard vivarium conditions of temperature (22±2° C.), humidity (55-75%) and light (12 h light-dark cycle) with a free supply of food and water. Experimental animals (n=10) drank sterile water containing agmatine sulfate 5.3 g/l, while controls (n=10) drank regular sterile drinking-water for 95 days. Drinking-water containing agmatine sulfate have bitter taste.
Animal body weight and systolic blood pressure (SBP) as measured by tail-cuff plethysmography (IITC Life Science, Woodland Hills, Calif.) were measured at the starting day of the experiment (day 1) and at various intervals thereafter. General behavior, fur appearance and feces appearance were also assessed. Water consumption was measured daily. After 95 days, 5 animals of each group were deeply anesthetized ([…] sodium pentobarbital, intraperitoneal) and the stomach, kidney, heart and liver removed for gross inspection. The stomach was inspected for appearance of ulcers. The rest of the animals, in both the control and experimental groups, were all maintained on regular diet (without agmatine sulfate in the drinking-water) for additional 20 days and then killed (on the 115th day). Results were evaluated by analysis of variance (ANOVA) procedure. Differences were analyzed by 2-tailed t-test and values of p≦0.05 were considered statistical significant. For data normalization, differences were expressed as percent change of day 1 values.

humans [2] = experiment: Open label dose-escalating safety and tolerability study of dietary agmatine sulfate capsules (Example I); type: in vivo, human; settings: oral doses of up to 2.67 g/day for over 2 years
[3] = system: facial nerve crush in male Wistar rats; experiment: Vibrissae functional recovery after facial nerve crush following prior agmatine sulfate intake (Example III); type: in vivo, rat
Experimental: The experiment was performed at Assaf Harofeh Medical Center, Israel, with 4-month-old male Wistar rats (Harlan, Israel) kept under standard conditions in the Institute's vivarium according to the Institutional Animal Care and Use Committee approved protocols (see Example II above). […] rats were divided into 2 groups of 14 animals each, one group drank sterile water containing agmatine sulfate 5.3 g/l, while the other drank regular sterile drinking-water for a period of 21 days. On day 21 both groups were switched to drink regular tap water. In 7 rats from each group the facial nerve was crushed unilaterally while the other 7 were left unoperated. Surgery was performed under halothane anesthesia (1.5% in 100% 02) and the facial nerve was crushed unilaterally at the stylomastoid foramen for 20 seconds with a jeweler's forceps under the operating microscope.
Transection of the facial nerve, which innervates the upper and lower lips results in paralysis of the vibrissae (whiskers) on the operated side. Functional recovery was assessed by evaluation of vibrissae movement for up to 14 days postoperatively using the following arbitrary scale of 0 to 4:0, complete paralysis with vibrissae flattened backwardly; —1, slight vibrating motion; —2, mild proximal vibrating motion; —3 moderate motion of vibrissae and lips; 4, full motion of lower face and vibrissae. Results were evaluated by analysis of variance (ANOVA) procedure followed by Bonferroni post hoc testing and differences considered significant at p<0.05.
B. sterile water containing agmatine and unoperated (controls, semisolid circle). C. Regular sterile drinking-water and nerve crush (solid square). D. sterile water containing agmatine and nerve crush (solid triangle). Results are the mean (±SEM, vertical lines) values of 7 animals. *=p<0.001 comparing group C to group D values.

[4] = system: participants with lumbar disc-associated radiculopathy; experiment: Randomized, double-blind, placebo-controlled trial in lumbar disc-associated radiculopathy; type: in vivo, human; settings: 2.670 g/day for 14 days
Source text: This recommendation is supported by recent clinical trials (Keynan O, Mirovsky Y, Dekel S, Gilad V H, Gilad G M. Safety and efficacy of dietary agmatine sulfate in lumbar disc-associated radiculopathy. An open label, dose-escalating study followed by a randomized, double-blind, placebo-controlled trial. Pain Med, (2010) in press). […] In the randomized, double-blind, placebo-controlled (RCT) trial, eligible participants received either placebo or agmatine sulfate (2.670 g/day for 14 days) in a double-blind fashion. Analysis was performed on 30 participants in the placebo and 31 in the agmatine sulfate arm. […] Secondary outcomes included assessments of safety and tolerability. […] While the severity of pain symptoms and general health status improved with time in both placebo and agmatine sulfate-treated groups, the improvements were more pronounced in the agmatine sulfate-treated group. […] Importantly, none of the participants reported worsening in their general health status.
Results, mean (±SEM, vertical lines) values are expressed as percent of baseline values. Asterisks indicate significant differences between the placebo- and agmatine sulfate-treated groups (p 0.033).

[5] = system: mice, rats, dogs, calves and monkeys; settings: variable dose ranges and regimens; cited from earlier work
[6] = 4th Cohort, 3.560 g/day for 21 days
[7] = Day 115 (20 days after treatment)

## N=C(N)NCCCCN.O=S(=O)(O)O [agmatine sulfate]
Humans [1]; 3rd Cohort, 3.560 g/day for 10 days
  Adverse Effects (no. of participants): Nausea and Diarrhea: 1
Humans [1]; 3.560 g/day
  Onset of diarrhea and nausea during treatment: 2 to 3 days
  Time to disappearance of diarrhea and nausea after treatment cessation: ≤ 2 days
Humans [1]; [6]
  Discontinuations - Due to Adverse Effects (no. of participants): 1
  Free Will Discontinuations (no. of participants): 1
  Adverse Effects (no. of participants): Nausea and Diarrhea: 2
Humans [1]; all 48 participants, 1.335-3.560 g/day
  Clinical examinations and laboratory analyses of blood samples: no abnormality in any parameter studied
Humans [1]; of 48 participants
  Number of participants who failed to complete the study: 2
Humans [1]; of 48 participants, all at 3.560 g/day
  Number of participants reporting mild-to-moderate side effects (diarrhea and nausea): 3
Humans [1]; oral doses of up to 3.56 g/day
  Adverse effects: only mild, reversible diarrhea was observed
Male Wistar rats; 95 days treatment
  General cage behavior, fur appearance and feces appearance: all normal
Male Wistar rats; Day 1
  Blood Pressure (% Change), percent of day 1: (100) %
  Body Weight (% Change), percent of day 1: (100) %
  Daily Drinking (% Change), percent of day 1: (100) %
  Blood Pressure (mmHg), systolic, mean: 106.4 mmHg
  Daily Drinking (ml), mean: 34.8 mL
  Daily Drinking: 35.5 ml and 34.8 ml and 35.6 ml (2×) and 34.7 ml and 33.4 ml and 35.0 ml (2×) and 33.8 ml and 34.5 ml
Male Wistar rats; Day 21
  Blood Pressure (% Change), percent of day 1: (97.3) %
  Body Weight (% Change), percent of day 1: (97.6) %
  Daily Drinking (% Change), percent of day 1: (72.1) %
  Blood Pressure (mmHg), systolic: 97.0 mmHg and 95.0 mmHg and 100.0 mmHg (2×) and 109.0 mmHg and 115.0 mmHg and 103.0 mmHg (2×) and 107.0 mmHg and 106.0 mmHg
  Daily Drinking: 21.4 mL and 25.3 mL and 25.1 mL and 25.0 mL and 24.1 mL and 25.5 mL and 26.4 mL and 24.9 mL and 27.0 mL and 26.7 mL
Male Wistar rats; Day 95
  Blood Pressure (% Change), percent of day 1: (96.9) %
  Body Weight (% Change), percent of day 1: (102.2) %
  Daily Drinking (% Change), percent of day 1: (83.9) %
  Blood Pressure (mmHg), systolic: 95.0 mmHg and 97.0 mmHg and 101.0 mmHg (2×) and 110.0 mmHg and 112.0 mmHg and 105.0 mmHg (2×) and 106.0 mmHg and 99.0 mmHg
  Daily Drinking: 25.6 ml and 28.7 ml and 30.0 ml (2×) and 27.7 ml and 29.6 ml and 30.3 ml and 28.4 ml and 31.3 ml and 30.6 ml
Male Wistar rats; Day 115
  Blood Pressure (% Change), percent of day 1: (99.1) %
  Body Weight (% Change), percent of day 1: (103.9) %
  Daily Drinking (% Change), percent of day 1: (99.7) %
Male Wistar rats; after 95 days of treatment
  Weight gain after switch to regular drinking water: recovery in weight gain within 20 days
Male Wistar rats; during treatment
  Weight gain: reduced weight gain with actual weight loss during the first 3 weeks of treatment
Male Wistar rats; during treatment, 5.3 g/l in drinking water
  Volume of water intake: reduction in volume of water intake
Male Wistar rats; during treatment, recovered 20 days after cessation
  Systolic blood pressure: slight, but significant reduction
Male Wistar rats; Day 1, n=10
  Body Weight (g), mean: 253.4 g
Male Wistar rats; Day 21, p<0.05 vs day 1
  Blood Pressure (mmHg), systolic, mean: 103.5 ± mmHg
  Body Weight (g), mean: 247.3 ± g
  Daily Drinking (ml), mean: 25.1 ± ml
Male Wistar rats; Day 95, p<0.05 vs day 1
  Blood Pressure (mmHg), systolic, mean: 103.1 ± mmHg
  Body Weight (g), mean: 258.9 ± g
  Daily Drinking (ml), mean: 29.2 ± ml
Male Wistar rats; Day 115 (20 days after treatment), n=5, p<0.05 vs day 1
  Body Weight (g), mean: 261.4 ± g
Male Wistar rats; Day 115, n=5
  Blood Pressure (mmHg), systolic, mean: 105.8 mmHg
  Daily Drinking (ml), mean: 34.9 mL
Male Wistar rats; Day 1 (beginning), 5.3 g/l in drinking water
  Body Weight: 250 g (2×) and 265 g and 255 g and 257 g and 247 g and 245 g and 252 g and 260 g and 253 g
Male Wistar rats; Day 1, tail-cuff
  Blood Pressure (mmHg), systolic: 99.0 mmHg and 100.0 mmHg and 105.0 mmHg (2×) and 112.0 mmHg and 115.0 mmHg and 110.0 mmHg and 109.0 mmHg and 102.0 mmHg and 107.0 mmHg
Male Wistar rats; Day 21 of treatment
  Body Weight: 255 g (2×) and 245 g (3×) and 260 g and 227 g and 242 g and 250 g and 249 g
Male Wistar rats; Day 95 of treatment
  Body Weight: 265 g and 257 g (2×) and 273 g and 253 g and 251 g and 255 g (2×) and 263 g and 260 g
Male Wistar rats; [7]
  Blood Pressure (mmHg), systolic: 108.0 mmHg and 107.0 mmHg (2×) and 104.0 mmHg and 103.0 mmHg
  Body Weight: 256 g and 261 g and 259 g and 267 g and 264 g
  Daily Drinking: 34.5 mL and 35.3 mL and 34.9 mL and 35.0 mL and 34.8 mL
Male Wistar rats; inspection after 95 days
  Stomach ulcers: no stomach ulcers were observed
Male Wistar rats; over the 95 day treatment period
  Average daily water consumption: 27.15 mL
Male Wistar rats; stomach, kidney, heart, liver
  Inspection of main internal organs: did not reveal any gross changes
Humans [2]
  Adverse effects: have not been associated with any adverse effects
[3]; controls: day 14
  Day after injury at which nearly full recovery of vibrissae movement is achieved: 12 days
[3]; day 10 after injury, 5.3 g/l in drinking water for 21 days before crush
  Increase in vibrissae motion as compared to controls (group C): 181.2%
[3]; group D vs group C, p<0.001
  Recovery of vibrissae movement: significantly accelerated recovery of vibrissae movement
[4]; 31 participants
  Adverse effects during the trial: no adverse effects were noted
[4]; follow-up 15-20 day, p=0.013
  Improvement in general health status, SF-36 Total Score, compared to placebo: statistically significant enhanced improvements
[4]; follow-up 15-20 day, p=0.033
  Improvement in pain measures (Visual Analogue Scale) compared to placebo: statistically significant enhanced improvements

## N=C(N)NCCCCN [agmatine]
[5]
  Toxic effects during or after oral intake: No toxic effects

Source: patent US8916612B2, “Agmatine containing dietary supplements, nutraceuticals, and foods” (priority 2008, dated 2014)
